Here are results for one compound from patent US10130590B2, “Methods of treating cancer with atovaquone-related compounds” (DANA-FARBER CANCER INSTITUTE, INC., priority 2013, dated 2018).

Like-named read-outs stand apart in the source and are kept apart here.

One data set has as its system HEL cells. The data set is described as follows: Cell viability (Cell Titer Glo), HEL. The note with it: 72 hours. Format: cell-based. Here is the method: Western blotting was performed as previously described (Battle T E, Arbiser J, & Frank D A (2005) The natural product honokiol induces caspase dependent apoptosis in B-cell chronic lymphocytic leukemia (B-CLL) cells. Blood 106(2):690-697). Antibodies to phospho-MAPK (9101), total MAPK (9102), phospho-Y705 STAT3 (9131), phospho-S6 (2215), total S6 (2217), phospho-4E-BP1 (9451), total 4E-BP1 (9644), total RSK (9355), phospho-S6K (9234, 85 used at 1:5000), total S6K (2708), phospho-eIF2α (9721, used at 1:1000), total eIF2α (5324), ATF4 (11815, used at 1:1000), PDGFRβ (3169), IGF1Rβ (9750), EGFR (2232), and HER2 (2242) were from Cell Signaling Technology. Phospho-RSK antibody was from R&D (AF889). Antibodies to total STAT3 (sc-482) and gp130 (sc-656, used at 1:1000) were from Santa Cruz Biotechnology. Phospho-S727 STAT3 antibody was described previously (229). REDD1 antibody was from Proteintech (10638-1-AP, used at 1:1000). Antibody recognizing full-length and cleaved ATF6 was from Abcam (ab122897, used at 1:1000). Antibodies to tubulin (T5168) and beta actin (A5316) were from Sigma. All antibodies were used at 1:10000 dilution for western blot unless otherwise noted. […] Cell viability was measured as ATP-dependent luminescence by Cell Titer Glo (Promega). […]

For data set [1] the following is noted: cited from earlier work.
Data set [2] concerns acute myeloid leukemia (AML). The data set is described as follows: Retrospective analysis of atovaquone exposure in AML patients after HSCT. Format: in vivo, human. Here is the method: Atovaquone start and end dates for approximately 500 AML patients who underwent HSCT at Dana-Farber Cancer Institute from 2006-2012 were obtained by chart review of the electronic medical record with DFCI IRB approval. Atovaquone was administered as a suspension, 750 mg twice daily. Due to the intermittent atovaquone dosing for some patients, a discontinuation for longer than 50 days disqualified subsequent atovaquone treatment from counting toward a patient's total atovaquone exposure. Patients who received more than one HSCT were excluded (4% of total patients).
The patient population consisted of AML patients treated with HSCT at the Dana-Farber Cancer Institute and who survived at least 150 days after transplant without relapse. Patients treated with atovaquone for at least 100 days within the 150-day period were classified as “high atovaquone” exposure, while the remaining patients were classified as “low atovaquone” exposure. […] To further investigate the anti-cancer activity of atovaquone in patients, serum samples were collected from patients approximately 100 days following HSCT who were being treated with either TMP-SMX or atovaquone. […] Atovaquone is a colored compound, and its presence in patient plasma is visibly noticeable.

The subject of a further data set is mTOR pathway. The data set is described as follows: Western blot of mTOR pathway markers (S6, S6K, 4E-BP1). Format: cell-based. Here is the method: Western blotting was performed as previously described (Battle T E, Arbiser J, & Frank D A (2005) The natural product honokiol induces caspase dependent apoptosis in B-cell chronic lymphocytic leukemia (B-CLL) cells. Blood 106(2):690-697). Antibodies to phospho-MAPK (9101), total MAPK (9102), phospho-Y705 STAT3 (9131), phospho-S6 (2215), total S6 (2217), phospho-4E-BP1 (9451), total 4E-BP1 (9644), total RSK (9355), phospho-S6K (9234, 85 used at 1:5000), total S6K (2708), phospho-eIF2α (9721, used at 1:1000), total eIF2α (5324), ATF4 (11815, used at 1:1000), PDGFRβ (3169), IGF1Rβ (9750), EGFR (2232), and HER2 (2242) were from Cell Signaling Technology. Phospho-RSK antibody was from R&D (AF889). Antibodies to total STAT3 (sc-482) and gp130 (sc-656, used at 1:1000) were from Santa Cruz Biotechnology. Phospho-S727 STAT3 antibody was described previously (229). REDD1 antibody was from Proteintech (10638-1-AP, used at 1:1000). Antibody recognizing full-length and cleaved ATF6 was from Abcam (ab122897, used at 1:1000). Antibodies to tubulin (T5168) and beta actin (A5316) were from Sigma. All antibodies were used at 1:10000 dilution for western blot unless otherwise noted. For immunoprecipitations, cells were lysed in 500 μl lysis buffer (0.5% NP-40, 150 mM NaCl, 50 mM Tris pH 7.5, with protease and phosphatase inhibitors freshly added at 1:100 [Pierce, PI78443]) on ice for 15 minutes, then centrifuged for 10 minutes at 14,000 RPM and 4° C. The supernatant was transferred to a new tube and incubated with 10 μl JAK2 antibody (Santa Cruz sc-278) or a mix of two TYK2 antibodies, 10 μl of each (Santa Cruz sc-5271 and Cell Signaling Technology 9312). Immunoprecipitation was performed overnight at 4° C. with rotation. The next day, 75 μl of protein A/G beads (Santa Cruz sc-2003) were washed twice in lysis buffer, then incubated with immunoprecipitates overnight as before. The next day, the beads were spun down (1 min. at 7,500 RPM and 4° C.) and washed 3 times with 650 μl lysis buffer for 10 minutes at 4° C. with rotation, then boiled in 50 μl sample buffer+10% β-mercaptoethanol. For Western blot, 20 μl were loaded per lane. For detection of phospho-tyrosine, a mixture of two pan-phospho-tyrosine antibodies (Cell Signaling Technology 9411 and 9416, 1:1000 of each) was used. Antibody to phospho-Y1007/1008 JAK2 was from Cell Signaling 86 Technology (3771, used at 1:1000). Antibody to phospho-Y570 JAK2 was from Millipore (09-241, used at 1:1000). Luminometric Assays Luciferase reporter cell lines were described previously (186). Firefly luciferase values were normalized by concurrent cell viability. Cell viability was measured as ATP-dependent luminescence by Cell Titer Glo (Promega).
K562 cells were treated with atovaquone (20 μM) or rapamycin (10 nM) for 1 hour or 5 hours, then analyzed by Western blot. […] The requirement for prolonged treatment to observe mTOR inhibition raised the possibility that this effect was mediated by an induced factor. To test this hypothesis, cells were pretreated with cycloheximide, a protein synthesis inhibitor. K562 cells were pre-treated with vehicle or cycloheximide (2 μg/ml) for 1 hour, then treated with vehicle or atovaquone (20 μM) for 5 hours. […] Similar results were obtained with actinomycin D, an inhibitor of mRNA synthesis.
To evaluate the role of REDD1, RNA interference was used to knock down its expression in adherent SKBR3 cells, given the relative ease of introducing siRNA into these cells. SKBR3 cells were transfected with control or REDD1 siRNA for 48 hours, then treated with atovaquone (25 μM) for 4 hours.
Next, U266 cells were treated with 12.5 or 25 μM buparvaquone or 1, 5, or 25 μM 2-(4-(trans-decahydronaphth-2-yl)butyl)-3-hydroxy-1,4-naphthoquinone (Sigma analog), or DMSO vehicle control, for 2.5 hours, after which cells were harvested and immunoblots were performed with antibodies for total and phospho STAT3 and total and phospho S6.

The mark [3] stands for this setting: K562, 20 μM, only after 5 hours, efficacy comparable to rapamycin.

In the case of `O=C1C(O)=C([C@H]2CC[C@H](c3ccc(Cl)cc3)CC2)C(=O)c2ccccc21` [atovaquone, trans-2-[4-(4-chlorophenyl)cyclohexyl]-3-hydroxy-1,4-naphthalenedione], the “viability of HEL cells” value in the data set on HEL cells is reported as “killed”. Besides, in data set [1] (patients taking standard doses), the “plasma concentrations achieved in patients” value was 40 to 80 µM. The “plasma concentrations achieved in patients” value in data set [1] (patients) was 15000 to 30000 ng/mL. Besides, the relapse-free survival result in data set [2] ("high atovaquone" (at least 100 days within the 150-day period) vs "low atovaquone") was “significantly improved relapse-free survival”. The overall survival result in data set [2] ("high atovaquone" vs "low atovaquone") is listed as “trend toward improved overall survival”. In addition, in the data set with mTOR pathway (setting [3]), the “phosphorylation of 4E-BP1” value was “inhibited phosphorylation of 4E-BP1” and the “phosphorylation of ribosomal protein S6” value is recorded as “inhibited phosphorylation”. In addition, the “phosphorylation of p70S6K” value in the data set with mTOR pathway (K562, 6 hours) is “inhibited phosphorylation of p70S6K”. Besides, the “inhibition of S6 phosphorylation after cycloheximide pre-treatment” value with mTOR pathway (K562 and U266, cycloheximide 2 μg/ml 1 hour) is recorded as “blocked in the presence of cycloheximide”. Further, the “inhibition of S6 phosphorylation after REDD1 knock down” value in the data set with mTOR pathway (SKBR3, REDD1 siRNA 48 hours, 25 μM 4 hours) is “largely blocked”.
